“And” between values parts separate entries of the source, which are not always exact repeats. Equal entries are not always repeated. Where two headings read alike, the source gives them in different places.
Experiments:
Assay in all cases: MIC of compounds alone and combined with antibacterials, broth microdilution (CLSI)
Type in all cases: cell-based
[1] = test system: Enterobacter cloacae (ECL) isolates; details: for MIC: Enterobacter cloacae
How it was run: (§1)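 Log-phase bacteria at a final 5·10^5 CFU/mL in cation-adjusted Mueller-Hinton broth were incubated 16-20 h at 35° C in ambient air with compound alone or with an antibacterial. MIC was the lowest concentration preventing visible growth; combination MIC of the antibacterial was read at each compound concentration.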

[2] = test system: Serratia marcescens (SMA) isolates
How it was run: as §1

[3] = test system: Providencia rettgeri (PRE) isolates; details: for MIC: Providencia rettgeri
How it was run: as §1

[4] = test system: Salmonella typhimurium (STY) isolates; details: for MIC: Salmonella enterica, TYPHIMURIUM, strain STY S3371 (OXA-1)
How it was run: as §1

[5] = test system: Citrobacter koseri (CKR) isolates; details: for MIC ATB in combination: AF1 @ 4 μg/mL; for MIC: Citrobacter koseri
How it was run: as §1

[6] = test system: Klebsiella oxytoca (KOX) isolates; details: for MIC ATB in combination: AF1 @ 4 μg/mL; for MIC: Klebsiella oxytoca
How it was run: as §1

CC1(C)S[C@@H]2[C@H](NC(=O)[C@H](N)c3ccc(O)cc3)C(=O)N2[C@H]1C(=O)O [AMX, Amoxicillin]
MIC ATB in combination [1]: 128 µg/mL | MIC ATB in combination ([1]; ECL 190408, AF1 @ 4 μg/mL): 8 µg/mL | MIC ATB in combination ([1]; ECL 200138, AF1 @ 4 μg/mL): 256 µg/mL | MIC ATB in combination ([1]; ECL 260033, AF1 @ 4 μg/mL): 256 µg/mL | MIC ATB in combination ([1]; ECL 260253, AF1 @ 4 μg/mL): 256 µg/mL | MIC ATB in combination ([1]; ECL 260323, AF1 @ 4 μg/mL): 256 µg/mL | MIC ATB in combination ([1]; ECL UFR13, AF1 @ 4 μg/mL): 256 µg/mL | MIC ATB in combination ([1]; ECL UFR70, AF1 @ 4 μg/mL): 64 µg/mL | MIC ATB in combination ([1]; ECL UFR85, AF1 @ 4 μg/mL): 256 µg/mL | MIC ATB in combination ([1]; ECL UFR194, AF1 @ 4 μg/mL): 256 µg/mL | MIC ATB in combination ([1]; ECL UFR200, AF1 @ 4 μg/mL): 256 µg/mL | MIC ([1]; ATB alone, strain ECL UFR197 (TEM-1, CTX-M-15, OXA-1, OXA-48)): > 128 µg/mL | MIC ([1]; ATB alone, strain ECL UFR198 (TEM-1, SHV-12, CTX-M-15, DHA-1, OXA-1, OXA-48)): > 128 µg/mL | MIC ([1]; ATB combined with CLA @ 4 μg/ml, strain ECL UFR197 (TEM-1, CTX-M-15, OXA-1, OXA-48)): > 128 µg/mL | MIC ([1]; ATB combined with CLA @ 4 μg/ml, strain ECL UFR198 (TEM-1, SHV-12, CTX-M-15, DHA-1, OXA-1, OXA-48)): > 128 µg/mL | MIC ([1]; strain ECL 2185D (OXA-163), ATB alone): > 256 µg/mL | MIC ([1]; strain ECL 2185D (OXA-163), CLA @ 4 μg/ml+ ATB): > 128 µg/mL | MIC ([1]; strain ECL 190310 (AmpC), ATB alone): > 256 µg/mL | MIC ([1]; strain ECL 190310 (AmpC), CLA @ 4 μg/ml+ ATB): > 128 µg/mL | MIC ([1]; strain ECL 190408 (TEM-1, CTX-M-15, OXA-1), ATB alone): > 256 µg/mL | MIC ([1]; strain ECL 190408 (TEM-1, CTX-M-15, OXA-1), CLA @ 4 μg/ml+ ATB): > 128 µg/mL | MIC ([1]; strain ECL 200138 (AmpC), ATB alone): > 256 µg/mL | MIC ([1]; strain ECL 200138 (AmpC), CLA @ 4 μg/ml+ ATB): > 128 µg/mL | MIC ([1]; strain ECL 200322 (TEM-1, CTX-M-15, OXA-1), ATB alone): > 256 µg/mL | MIC ([1]; strain ECL 200322 (TEM-1, CTX-M-15, OXA-1), CLA @ 4 μg/ml+ ATB): > 128 µg/mL | MIC ([1]; strain ECL 260033 (AmpC), ATB alone): > 256 µg/mL | MIC ([1]; strain ECL 260033 (AmpC), CLA @ 4 μg/ml+ ATB): > 128 µg/mL | MIC ([1]; strain ECL 260253 (TEM-1, KPC-3), ATB alone): > 256 µg/mL | MIC ([1]; strain ECL 260253 (TEM-1, KPC-3), CLA @ 4 μg/ml+ ATB): > 128 µg/mL | MIC ([1]; strain ECL 260323 (AmpC), ATB alone): > 256 µg/mL | MIC ([1]; strain ECL 260323 (AmpC), CLA @ 4 μg/ml+ ATB): > 128 µg/mL | MIC ([1]; strain ECL 260508 (TEM-1, CTX-M-15), ATB alone): > 256 µg/mL | MIC ([1]; strain ECL 260508 (TEM-1, CTX-M-15), CLA @ 4 μg/ml+ ATB): > 128 µg/mL | MIC ([1]; strain ECL NEM146383 (AmpC), ATB alone): > 256 µg/mL | MIC ([1]; strain ECL NEM146383 (AmpC), CLA @ 4 μg/ml+ ATB): > 128 µg/mL | MIC ([1]; strain ECL P99 (AmpC), ATB alone, read-out: MIC): > 1020 µg/mL | MIC ([1]; strain ECL P99 (AmpC), CLA @ 4 μg/ml+ ATB): > 512 µg/mL | MIC ([1]; strain ECL UFR12 (CTX-M-9, OXA-48), ATB alone): > 256 µg/mL | MIC ([1]; strain ECL UFR12 (CTX-M-9, OXA-48), CLA @ 4 μg/ml+ ATB): > 128 µg/mL | MIC ([1]; strain ECL UFR13 (TEM-1, SHV-12, CTX-M-9, OXA-48), ATB alone): > 256 µg/mL | MIC ([1]; strain ECL UFR13 (TEM-1, SHV-12, CTX-M-9, OXA-48), CLA @ 4 μg/ml+ ATB): > 128 µg/mL | MIC ([1]; strain ECL UFR14 (TEM-1, SHV-12, CTX-M-15, DHA-1, OXA-1, OXA-48), ATB alone): > 256 µg/mL | MIC ([1]; strain ECL UFR14 (TEM-1, SHV-12, CTX-M-15, DHA-1, OXA-1, OXA-48), CLA @ 4 μg/ml+ ATB): > 128 µg/mL | MIC ([1]; strain ECL UFR60 (TEM-1, CTX-M-15, KPC-2), ATB alone): > 256 µg/mL | MIC ([1]; strain ECL UFR60 (TEM-1, CTX-M-15, KPC-2), CLA @ 4 μg/ml+ ATB): > 128 µg/mL | MIC ([1]; strain ECL UFR70 (TEM-1, CTX-M-15, CMY-2, OXA-1, Porin loss), ATB alone): > 256 µg/mL | MIC ([1]; strain ECL UFR70 (TEM-1, CTX-M-15, CMY-2, OXA-1, Porin loss), CLA @ 4 μg/ml+ ATB): > 128 µg/mL | MIC ([1]; strain ECL UFR84 (TEM-1, AmpC, OXA-1), ATB alone): > 256 µg/mL | MIC ([1]; strain ECL UFR84 (TEM-1, AmpC, OXA-1), CLA @ 4 μg/ml+ ATB): > 128 µg/mL | MIC ([1]; strain ECL UFR85 (TEM-1, CTX-M-15, AmpC), ATB alone): > 256 µg/mL | MIC ([1]; strain ECL UFR85 (TEM-1, CTX-M-15, AmpC), CLA @ 4 μg/ml+ ATB): > 128 µg/mL | MIC ([1]; strain ECL UFR194 (OXA-48), ATB alone): > 128 µg/mL | MIC ([1]; strain ECL UFR194 (OXA-48), CLA @ 4 μg/ml+ ATB): > 128 µg/mL | MIC ([1]; strain ECL UFR195 (TEM-1, CTX-M-15, OXA-1, OXA-48), ATB alone): > 128 µg/mL | MIC ([1]; strain ECL UFR195 (TEM-1, CTX-M-15, OXA-1, OXA-48), CLA @ 4 μg/ml+ ATB): > 128 µg/mL | MIC ([1]; strain ECL UFR196 (TEM-1, CTX-M-15, OXA-1, OXA-48), ATB alone): > 128 µg/mL | MIC ([1]; strain ECL UFR196 (TEM-1, CTX-M-15, OXA-1, OXA-48), CLA @ 4 μg/ml+ ATB): > 128 µg/mL | MIC ([1]; strain ECL UFR200 (TEM-1, SHV-12, KPC-2), ATB alone): > 128 µg/mL | MIC ([1]; strain ECL UFR200 (TEM-1, SHV-12, KPC-2), CLA @ 4 μg/ml+ ATB): > 128 µg/mL | MIC ATB in combination ([1]; strain ECL UFR195, antibacterial combined with AF1 @ 4 μg/mL): 256 µg/mL | MIC ATB in combination ([1]; strain ECL UFR197, antibacterial combined with AF1 @ 4 μg/mL): 256 µg/mL | MIC [2]: 128 µg/mL and >256 µg/mL | MIC ATB in combination [2]: 128 µg/mL | MIC ATB in combination ([2]; SMA UFR30, AF1 @ 4 μg/mL): 256 µg/mL | MIC ATB in combination ([2]; SMA UFR135, AF1 @ 4 μg/mL): 256 µg/mL | MIC ATB in combination ([2]; SMA UFR136, AF1 @ 4 μg/mL): 256 µg/mL | MIC ATB in combination ([2]; SMA UFR137, AF1 @ 4 μg/mL): 64 µg/mL | MIC ATB in combination ([2]; SMA UFR138, AF1 @ 4 μg/mL): 64 µg/mL | MIC ATB in combination ([2]; SMA UFR139, AF1 @ 4 μg/mL): 64 µg/mL | MIC ATB in combination ([2]; SMA UFR143, AF1 @ 4 μg/mL): 256 µg/mL | MIC ATB in combination ([2]; SMA UFR239, AF1 @ 4 μg/mL): 64 µg/mL | MIC ([2]; Serratia marcescens): > 128 µg/mL | MIC ([2]; Serratia marcescens, strain SMA UFR239 (ESAC), CLA @ 4 μg/ml+ ATB, read-out: MIC): 64 µg/mL | MIC ATB in combination ([3]; PRE UFR99, AF1 @ 4 μg/mL): >512 µg/mL | MIC ([3]; ATB combined with CLA @ 4 μg/ml, strain PRE UFR236 (TEM-1, OXA-48)): > 128 µg/mL | MIC ([3]; strain PRE UFR99 (OXA-1, OXA-181), ATB alone): > 128 µg/mL | MIC ([3]; strain PRE UFR99 (OXA-1, OXA-181), CLA @ 4 μg/ml+ ATB): > 128 µg/mL | MIC ([3]; ATB alone, strain PRE UFR236 (TEM-1, OXA-48)): > 128 µg/mL | MIC ATB in combination ([3]; strain PRE UFR236, antibacterial combined with AF1 @ 4 μg/mL): 512 µg/mL | MIC ATB in combination [4]: 128 µg/mL | MIC ([4]; ATB alone): > 256 µg/mL | MIC ([4]; CLA @ 4 μg/ml+ ATB): 128 µg/mL | MIC ATB in combination ([5]; CKO ROU): 32 µg/mL | MIC ATB in combination ([5]; CKO UFR149): 512 µg/mL | MIC ATB in combination ([5]; CKO UFR150): 64 µg/mL | MIC ([5]; strain CKO ROU (TEM-1, SHV-12, CTX-M-15, OXA-1, OXA-48), ATB alone): > 256 µg/mL | MIC ([5]; strain CKO ROU (TEM-1, SHV-12, CTX-M-15, OXA-1, OXA-48), CLA @ 4 μg/ml+ ATB): > 128 µg/mL | MIC ([5]; strain CKO UFR149 (OXA-48), ATB alone): > 128 µg/mL | MIC ([5]; strain CKO UFR149 (OXA-48), CLA @ 4 μg/ml+ ATB): > 128 µg/mL | MIC ([5]; strain CKO UFR150 (TEM-1, OXA-48), ATB alone): > 128 µg/mL | MIC ([5]; strain CKO UFR150 (TEM-1, OXA-48), CLA @ 4 μg/ml+ ATB): > 128 µg/mL | MIC ATB in combination ([6]; KOX UFR21): 256 µg/mL | MIC ATB in combination ([6]; KOX UFR173): 4 µg/mL | MIC ATB in combination ([6]; KOX UFR223): 16 µg/mL | MIC ATB in combination ([6]; KOX UFR224): 64 µg/mL | MIC [6]: > 128 µg/mL | MIC ([6]; strain KOX UFR21 (TEM-1, CTX-M-15, OXA-48), ATB alone): > 256 µg/mL | MIC ([6]; strain KOX UFR21 (TEM-1, CTX-M-15, OXA-48), CLA @ 4 μg/ml+ ATB): > 128 µg/mL | MIC ([6]; strain KOX UFR223 (SHV-11, OXA-48), ATB alone): > 128 µg/mL | MIC ([6]; strain KOX UFR223 (SHV-11, OXA-48), CLA @ 4 μg/ml+ ATB): > 128 µg/mL | MIC ([6]; strain KOX UFR224 (CTX-M-15, OXA-48), ATB alone): > 128 µg/mL | MIC ([6]; strain KOX UFR224 (CTX-M-15, OXA-48), CLA @ 4 μg/ml+ ATB): > 128 µg/mL

From patent US20200017496A1 (priority 2017, published 2020)
